According to US8431596B2 (Cancer Research Technology Limited, priority 2007, dated 2013):

Biological target: T1, AXL (human catalytic domain) (Homo sapiens, UniProt P30530)
T1 construct: purchased Upstate Ltd. 14-512
T1 sequence (P30530 473-894): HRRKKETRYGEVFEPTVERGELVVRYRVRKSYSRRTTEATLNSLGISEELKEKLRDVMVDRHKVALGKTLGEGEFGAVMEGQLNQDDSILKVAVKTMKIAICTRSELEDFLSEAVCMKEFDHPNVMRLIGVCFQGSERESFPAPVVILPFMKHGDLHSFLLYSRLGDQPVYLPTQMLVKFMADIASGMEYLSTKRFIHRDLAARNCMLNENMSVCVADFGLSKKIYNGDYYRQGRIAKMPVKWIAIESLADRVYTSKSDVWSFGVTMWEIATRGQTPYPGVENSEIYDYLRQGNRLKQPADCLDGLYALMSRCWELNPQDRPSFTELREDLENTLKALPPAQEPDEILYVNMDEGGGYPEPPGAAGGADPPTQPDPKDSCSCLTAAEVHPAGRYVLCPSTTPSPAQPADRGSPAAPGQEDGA
Assay: AXL (human catalytic domain) Enzyme Activity Assay (IMAP fluorescence polarisation)
Format: biochemical
Summary of the method: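 IMAP FP readout (Ex485/Em535, after overnight binding) measured inhibition of the human AXL catalytic domain (aa473-894, 15 nM final) acting on 100 nM 5FAM-CSK-tide at 150 μM ATP, equal to KM. Reactions ran 60 min at room temperature in pH 7.0 HEPES buffer; IC50 from 10-point curves.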

[1] = further data set (WW-001 through WW-169, XX-001 through XX-469, YY-001 through YY-016, ZZ-001 through ZZ-003), 150 μM ATP
[2] = first data set, recombinant AXL isoform 1 aa473-894, 150 μM ATP

Row | IC50 [1] [nM] | IC50 [2] [nM] | SMILES
1 | 100 to 1000 | – | O=C(Nc1ccc(-c2cccc3nc(Nc4ccc(OCCN5CCCC5)cc4)nn23)cc1)c1ccncc1 [XX-249]
2 | 100 to 1000 | < 1000 | CN(C)c1ccc(-c2cccc3nc(NC(=O)C4CC4)nn23)cc1 [WW-069]
3 | 100 to 1000 | – | CC(c1ccccc1)n1cc(-c2cccc3nc(Nc4ccc(OCCN5CCCC5)cc4)nn23)cn1 (stereo not drawn) [XX-306]
4 | 1000 to 10000 | – | c1ccc(CCNc2ccc(-c3cccc4nc(Nc5ccc(OCCN6CCCC6)cc5)nn34)cc2)cc1 [XX-265]
5 | 100 to 1000 | – | c1cc(-c2ccc3c(c2)OCCO3)n2nc(Nc3ccc(OCCN4CCCCC4)nc3)nc2c1 [XX-106]
6 | 100 to 1000 | – | c1cc2nc(Nc3ccc(OCCN4CCCC4)cc3)nn2c(-c2ccc3c(c2)OCCO3)n1 [YY-010]
7 | 1000 to 10000 | – | Fc1ccc(-c2cccc(-c3cccc4nc(Nc5ccc(OCCN6CCCC6)cc5)nn34)c2)cc1 [XX-467]
8 | ≤ 100 | < 1000 | c1cc(-c2ccc3c(c2)OCO3)n2nc(Nc3ccc(OCCN4CCCC4)cc3)nc2c1 [XX-021]
9 | ≤ 100 | – | CCN(CC)CCOc1cc(Nc2nc3cccc(-c4ccc(OC(C)C)cc4)n3n2)ccn1 [XX-360]
10 | 100 to 1000 | < 1000 | O=C(Nc1nc2cccc(-c3ccccc3)n2n1)C1CC1 [WW-001, Cyclopropanecarboxylic acid (5-phenyl-[1,2,4]triazolo[1,5-a]pyridin-2-yl)-amide]
11 | 1000 to 10000 | 1000 to 10000 | O=C(Nc1nc2cccc(-c3ccccc3O)n2n1)C1CC1 [WW-037]
12 | 1000 to 10000 | – | Cc1cc(CNc2cccc(-c3cccc4nc(Nc5ccc(OCCN6CCCC6)cc5)nn34)c2)n(C)n1 [XX-262]
13 | 100 to 1000 | – | Cc1cc(Cn2cc(-c3cccc4nc(Nc5ccc(OCCN6CCCC6)cc5)nn34)cn2)no1 [XX-305]
14 | 100 to 1000 | – | CC(=O)Nc1cccc(-c2cccc3nc(Nc4ccc(OCCN5CCCC5)cc4)nn23)c1 [XX-241]
15 | 1000 to 10000 | – | Clc1cccc(CNc2ccc(-c3cccc4nc(Nc5ccc(OCCN6CCCC6)cc5)nn34)cc2)c1 [XX-223, {5-[4-(3-Chloro-benzylamino)-phenyl]-[1,2,4]triazolo[1,5-a]pyridin-2-yl}-[4-(2-pyrrolidin-1-yl-ethoxy)-phenyl]-amine]
16 | 100 to 1000 | – | c1cc(OCC2CCCO2)cc(-c2cccc3nc(Nc4ccc(OCCN5CCCC5)cc4)nn23)c1 (stereo not drawn) [XX-175, [4-(2-Pyrrolidin-1-yl-ethoxy)-phenyl]-{5-[3-(tetrahydro-furan-2-ylmethoxy)-phenyl]-[1,2,4]triazolo[1,5-a]pyridin-2-yl}-amine]
17 | 100 to 1000 | – | COc1ccc(-c2cccc3nc(Nc4ccc(OCC(O)CN5CCOCC5)cc4)nn23)cc1 (stereo not drawn) [XX-410]
18 | 100 to 1000 | – | COCCn1cc(-c2cccc3nc(Nc4ccc(OCCN5CCCC5)cc4)nn23)cn1 [XX-349]
19 | 100 to 1000 | – | CCOc1cccc(-c2cccc3nc(Nc4ccc(OCCN5CCCC5)cc4)nn23)c1 [XX-337]
20 | 100 to 1000 | < 1000 | O=C(Nc1nc2cccc(-c3ccc4occc4c3)n2n1)C1CC1 [WW-133]
21 | ≤ 100 | – | CCC(CC)Cn1cc(-c2cccc3nc(Nc4ccc(OCCN5CCCC5)cc4)nn23)cn1 [XX-319]

Row | IC50 [1] [nM] | IC50 [2] [nM] | SMILES
22 | ≤ 100 | – | c1cc(-c2ccc3c(c2)OCCO3)n2nc(Nc3ccc(OCCCN4CCCC4)cc3)nc2c1 [XX-312]
23 | 1000 to 10000 | 1000 to 10000 | O=C(Nc1nc2cccc(-c3ccc(OCC4CC4)cc3)n2n1)C1CC1 [WW-121]
24 | 1000 to 10000 | – | COc1ccc(OC)c(-c2cccc3nc(Nc4ccc(OCCN5CCCC5)cc4)nn23)c1 [XX-333]
25 | 100 to 1000 | – | CN(C)CC(C)(C)Oc1ccc(Nc2nc3cccc(-c4ccc5c(c4)OCCO5)n3n2)cc1 [XX-126]
26 | 100 to 1000 | < 1000 | COc1ccc(-c2cccc3nc(Nc4cccc(OCCCN)c4)nn23)cc1 [XX-045]
27 | 100 to 1000 | – | COc1ccc(-c2cccc3nc(Nc4ccc(OCCCN5C(=O)c6ccccc6C5=O)cc4)nn23)cc1 [XX-039, 2-(3-{4-[5-(4-methoxy-phenyl)-[1,2,4]triazolo[1,5-a]pyridin-2-ylamino]-phenoxy}-propyl)-isoindole-1,3-dione]
28 | 100 to 1000 | < 1000 | CN(C)CCNC(=O)c1ccc(Nc2nc3cccc(-c4ccc5c(c4)OCO5)n3n2)cc1 [XX-087]
29 | 1000 to 10000 | 1000 to 10000 | O=C(Nc1nc2cccc(-c3ccnc(F)c3)n2n1)C1CC1 [WW-030]
30 | 100 to 1000 | – | COc1ccc(COc2cccc(-c3cccc4nc(Nc5ccc(OCCN6CCCC6)cc5)nn34)c2)cc1 [XX-340]
31 | 100 to 1000 | – | c1cc(-c2ccc3nonc3c2)n2nc(Nc3ccc(OCCN4CCCC4)cc3)nc2c1 [XX-208]
32 | ≤ 100 | – | CCN(CC)CCOc1cc(Nc2nc3cccc(-c4ccc5[nH]ccc5c4)n3n2)ccn1 [XX-363]
33 | 1000 to 10000 | 1000 to 10000 | O=C(Nc1nc2cccc(-c3ccc(F)c(F)c3)n2n1)C1CC1 [WW-090]
34 | 1000 to 10000 | 1000 to 10000 | COc1ccc(-c2cccc3nc(NC(=O)C4CC4)nn23)c(OC)c1 [WW-010, Cyclopropanecarboxylic acid [5-(2,4-dimethoxy-phenyl)-[1,2,4]triazolo[1,5-a]pyridin-2-yl]-amide]
35 | ≤ 100 | < 1000 | CN(C)CCOc1cc(Nc2nc3cccc(-c4ccc5c(c4)OCCO5)n3n2)ccn1 [XX-079]
36 | 100 to 1000 | – | CCCNC(=O)Cn1cc(-c2cccc3nc(Nc4ccc(OCCN5CCCC5)cc4)nn23)cn1 [XX-441]
37 | 1000 to 10000 | – | Clc1ccc(COc2cccc(-c3cccc4nc(Nc5ccc(OCCN6CCCC6)cc5)nn34)c2)cc1 [XX-336]
38 | ≤ 100 | – | Cc1ncsc1CNc1cccc(-c2cccc3nc(Nc4ccc(OCCN5CCCC5)cc4)nn23)c1 [XX-394]
39 | 1000 to 10000 | 1000 to 10000 | NCCCNc1ccc(-c2cccc3nc(NC(=O)C4CC4)nn23)cc1 [WW-157]
40 | ≤ 100 | < 1000 | CCN(CC)CCOc1ccc(Nc2nc3cccc(-c4ccc5c(c4)OCCO5)n3n2)cc1 [XX-075]
41 | 100 to 1000 | – | C[C@H](N)COc1ccc(Nc2nc3cccc(-c4ccc5c(c4)OCCO5)n3n2)cc1 [XX-143, [4-((S)-2-Amino-propoxy)-phenyl]-[5-(2,3-dihydro-benzo[1,4]dioxin-6-yl)-[1,2,4]triazolo[1,5-a]pyridin-2-yl]-amine]
42 | 100 to 1000 | – | Nc1cccc(-c2cccc3nc(Nc4ccc(OCCN5CCCC5)cc4)nn23)c1 [XX-255, [5-(3-Amino-phenyl)-[1,2,4]triazolo[1,5-a]pyridin-2-yl]-[4-(2-pyrrolidin-1-yl-ethoxy)-phenyl]-amine]

Row | IC50 [1] [nM] | IC50 [2] [nM] | SMILES
43 | 1000 to 10000 | 1000 to 10000 | O=C(Nc1nc2cccc(-c3cccc(C(F)(F)F)c3)n2n1)C1CC1 [WW-033]
44 | 1000 to 10000 | 1000 to 10000 | CS(=O)(=O)Nc1cccc(-c2cccc3nc(NC(=O)C4CC4)nn23)c1 [WW-011, Cyclopropanecarboxylic acid [5-(3-methanesulfonylamino-phenyl)-[1,2,4]triazolo[1,5-a]pyridin-2-yl]-amide]
45 | 1000 to 10000 | 1000 to 10000 | COc1c(C)cc(-c2cccc3nc(NC(=O)C4CC4)nn23)cc1C [WW-095]
46 | 100 to 1000 | – | COc1cc(Nc2nc3cccc(-c4ccc5c(c4)OCCN5C)n3n2)ccc1OCCN1CCCC1 [XX-095]
47 | 1000 to 10000 | – | O=C(Nc1ccc(-c2cccc3nc(Nc4ccc(OCCN5CCCC5)cc4)nn23)cc1)c1cccc(Cl)c1 [XX-220]
48 | 100 to 1000 | – | COc1ccc(-c2cccc3nc(Nc4ccc(OCCN5CCCC5)cc4)nn23)nc1 [XX-235]
49 | ≤ 100 | < 1000 | CN(C)CCOc1ccc(Nc2nc3cccc(-c4ccc5occc5c4)n3n2)cc1 [XX-051]
50 | ≤ 100 | < 1000 | c1cc(-c2ccc(N3CCOCC3)cc2)n2nc(Nc3ccc(OCCN4CCCC4)cc3)nc2c1 [XX-038]
51 | 1000 to 10000 | 1000 to 10000 | COc1ccc(CNc2cccc3nc(NC(=O)C4CC4)nn23)cc1 [WW-167]
52 | 100 to 1000 | – | c1cc(Nc2nc3cccc(-c4ccc5c(c4)OCCO5)n3n2)cc(OCCN2CCCC2)c1 [XX-100]
53 | 100 to 1000 | < 1000 | c1cc(-c2ccc3c(c2)OCO3)n2nc(Nc3ccc(OCCN4CCCCC4)cc3)nc2c1 [XX-047]
54 | 1000 to 10000 | 1000 to 10000 | O=C(Nc1nc2cccc(-c3ccc([N+](=O)[O-])cc3)n2n1)C1CC1 [WW-107]
55 | 1000 to 10000 | 1000 to 10000 | O=C(Nc1nc2cccc(NC3CCCC3)n2n1)C1CC1 [WW-078]
56 | 100 to 1000 | – | CCN(CC)CCC(=O)Nc1ccc(Nc2nc3cccc(-c4ccc5c(c4)OCCO5)n3n2)cc1 [XX-122]
57 | 100 to 1000 | – | c1csc(SCCn2cc(-c3cccc4nc(Nc5ccc(OCCN6CCCC6)cc5)nn34)cn2)c1 [XX-426]
58 | 100 to 1000 | – | CC(CNc1cccc(Nc2nc3cccc(-c4ccc5c(c4)OCCO5)n3n2)c1)N1CCCC1 (stereo not drawn) [XX-140]
59 | 1000 to 10000 | – | COc1ccc(-c2nccc3nc(NC(=O)C4CC4)nn23)cc1 [ZZ-003]
60 | ≤ 100 | < 1000 | CN(C)CCNC(=O)c1cccc(Nc2nc3cccc(-c4ccc5c(c4)OCCO5)n3n2)c1 [XX-080]
61 | 100 to 1000 | < 1000 | CN(C)CCNC(=O)c1cccc(Nc2nc3cccc(-c4ccc5c(c4)OCO5)n3n2)c1 [XX-002]
62 | 1000 to 10000 | 1000 to 10000 | O=C(Nc1nc2cccc(-c3ccc(F)cc3)n2n1)C1CC1 [WW-013]
63 | 1000 to 10000 | 1000 to 10000 | CCCCNc1cccc2nc(NC(=O)C3CC3)nn12 [WW-073]
